Assay results as given in patent US20240199676A1, “ANTIVIRAL COMPOUNDS AND METHODS OF MAKING AND USING THE SAME” (Gilead Sciences, Inc., priority 2022, published 2024).

What was measured:
[1] = test system: Respiratory syncytial virus recombinant with luciferase (RSV-Luc5) in NHBE cells; test: NHBE RSV-Luc5 384-well Assay (EC50 RSVFLUC NHBE-384, Ex. U); format: cell-based; details: human respiratory syncytial virus, 72 h, read-out: EC50 RSV FLUC NHBE 384 (per Ex. U)
Description: Example U. NHBE RSV-Luc5 384-well Assay (EC50 RSVFLUC NHBE-384)
Normal Human Bronchial Epithelial (NHBE) cells were purchased from Lonza (Walkersville, MD Cat #CC2540) and maintained in BEGM Bronchial Epithelial Cell Growth Medium BulletKit (Lonza CC-3170).
Cells were thawed, expanded, and were used for experiments at passage 2. Respiratory syncytial virus recombinant with luciferase (RSV-Luc5) (≥1×10^7 Infectious Units/ml (IU/ml) determined by TCID50) was purchased from Microbiologics (Saint Cloud, MN). Viral replication was determined in NHBE cells in the following manner.
Compounds are prepared in 100% DMSO in 384-well polypropylene plates (Greiner, Monroe, NC, Cat #784201) with 8 compounds per plate in grouped replicates of 4 at 10 serially diluted concentrations (1:3). The serially diluted compounds were transferred to low dead volume Echo plates (Labcyte, Sunnyvale, CA, Cat #LP-0200).
The test compounds were spotted to 384-well assay plates (Greiner, Monroe, NC, Cat#781091) at 200 nL per well. NHBE cells were harvested and suspended in BEGM Bronchial Epithelial Cell Growth Medium BulletKit and seeded to the pre-spotted assay plates at 5,000 cells per well in 30 μL. RSV-Luc5 virus was diluted in BEGM Bronchial Epithelial Cell Growth Medium BulletKit at 500,000 Infectious Units (IU) per mL and 10 μL per well was added to the assay plates containing cells and compounds, for an MOI of 1. The assay plates were incubated for 3 days at 37° C. and 5% CO2. At the end of incubation, One-Glo reagent (Promega, Madison, WI, Cat #E6120) was prepared. The assay plates and One-Glo reagent were equilibrated to room temperature for at least 15 minutes. 40 μL per well of One-Glo reagent was added and the plates were incubated at room temperature for 15 minutes before reading the luminescence signal on an EnVision multimode plate reader (Perkin Elmer, Waltham, MA). Remdesivir was used as positive control and DMSO was used as negative control. Values were normalized to the positive and negative controls (as 0% and 100% replication, respectively) and data was fitted using non-linear regression analysis by Gilead's dose response tool. The EC50 value for each compound was defined as the concentration reducing the viral replication by 50%.

[2] = GI S9 stability (Ex. Z), cyno intestinal S9; format: in vitro ADME; details: cynomolgus monkey, pooled intestinal S9 fractions; cyno intestinal S9, 1.0 mg/mL protein, 2 μM substrate, pH 7.4; read-out: GIS9 Cyno T½ (per Ex. Z)
Method: (§1) Example Z: GI S9 stability data:
(§2) Stock solutions of test compounds in dimethyl sulfoxide (DMSO) having a final concentration of 10 mM were prepared and used in all experiments. Sekisui XenoTech (Kansas City, KS) provided pooled intestinal S9 fractions. All other chemicals were purchased from Sigma-Aldrich (St. Louis, MO) or VWR (West Chester, PA). Internal Standard/Quench (IS/Q) used to stop reactions was 100 nM labetalol in (by volume) methanol (10%) and acetonitrile (90%).
(§3) Stability in Intestinal S9 Fractions: Duplicate aliquots of test compound or positive control substrate were added to S9 stock diluted with phosphate buffered saline (137 mM NaCl, 2.7 mM KCl, 10 mM phosphate buffer), pH 7.4, to obtain a protein concentration of 1.0 mg/mL. The metabolic reactions were initiated by the addition of the substrates to the S9 reaction mixture to a final concentration of 2 μM. At 0, 10, 20, 30, 60 and 120 min, 25 μL aliquots of the reaction mixture were transferred to plates containing 225 μl of IS/Q solution. After quenching, the plates were centrifuged at 3000×g for 30 minutes. 150 μL aliquots of each supernatant were dried down then reconstituted with 300 μL water. Aliquots (10 μL) of the prepared samples were analyzed on a Thermo Q-Exactive mass spectrometer as described below.
(§4) Liquid Chromatography—Mass Spectrometry: Quantification of test compounds and control substrate was performed by analyte/internal standard peak area ratio (PAR) values measured on a Thermo Q-Exactive mass spectrometer coupled to a Dionex UltiMate 3000 HPLC with a Leap Technologies HTC PAL autosampler. The column used for analysis was a Waters Acquity BEH C18 (1.7 μm particle size, 2.1×50 mm). Mobile phase A consisted of 0.1% (v/v) formic acid in water. Mobile phase B consisted of 0.1% (v/v) formic acid in acetonitrile. Elution of analytes was achieved by a series of linear gradients varying the proportions of A and B. The mass spectrometer was calibrated on a weekly basis and mass tolerance of 5 ppm was used.
(§5) Metabolic stabilities in S9 fractions were determined by measuring the rates of disappearance of test compound and positive control substrate.
(§6) Data (% of substrate remaining) were plotted on a semi-log scale and fitted using an exponential decline model:
(§7) Where Ct—% of substrate remaining at time=t; C0—% of substrate remaining at time=0; t—time; T½—half-life The Half-life (T½) is determined by the following equation: […]
(§8) Assuming a first-order reaction, the slope (k) is extrapolated from the aforementioned plotted data.

[3] = GI S9 stability (Ex. Z), dog intestinal S9; format: in vitro ADME; details: pooled intestinal S9 fractions; dog intestinal S9, 1.0 mg/mL protein, 2 μM substrate, pH 7.4; read-out: GIS9 DOG T½ (per Ex. Z)
Method: as §1, §2, §3, §4, §5, §6, §7, §8

| SMILES | EC50 [1] | half-life at 2 μM [2] | half-life at 2 μM [3] |
| --- | --- | --- | --- |
| Cc1ccc(C(=O)OC[C@@]2(C#N)O[C@@H](c3ccc4c(N)ncnn34)[C@H](O)[C@@H]2O)cc1 [Compound 14, ((2R,3S,4R,5S)-5-(4-aminopyrrolo[2,1-f][1,2,4]triazin-7-yl)-2-cyano-3,4-dihydroxytetrahydrofuran-2-yl)methyl 4-methylbenzoate] | 8.82 µM | 22 min | 426 min |
| CC1(C(=O)OC[C@@]2(C#N)O[C@@H](c3ccc4c(N)ncnn34)[C@H](O)[C@@H]2O)CC1 [Compound 15, ((2R,3S,4R,5S)-5-(4-aminopyrrolo[2,1-f][1,2,4]triazin-7-yl)-2-cyano-3,4-dihydroxytetrahydrofuran-2-yl)methyl 1-methylcyclopropane-1-carboxylate] | 8.8 µM | 123 min | 789 min |
| N#C[C@]1(COC(=O)CC2CCC2)O[C@@H](c2ccc3c(N)ncnn23)[C@H](O)[C@@H]1O [Compound 16, ((2R,3S,4R,5S)-5-(4-aminopyrrolo[2,1-f][1,2,4]triazin-7-yl)-2-cyano-3,4-dihydroxytetrahydrofuran-2-yl)methyl 2-cyclobutylacetate] | 9.53 µM | 3 min | 89 min |
| N#C[C@]1(COC(=O)C2CCCC2)O[C@@H](c2ccc3c(N)ncnn23)[C@H](O)[C@@H]1O [Compound 18, ((2R,3S,4R,5S)-5-(4-aminopyrrolo[2,1-f][1,2,4]triazin-7-yl)-2-cyano-3,4-dihydroxytetrahydrofuran-2-yl)methyl cyclopentanecarboxylate] | 8.99 µM | 3 min | 26 min |
